Results as given in patent US12070457B2, “Substituted pyridines, pyridazines, pyrimidines, and 1,2,3-triazines as bruton's tyrosine kinase inhibitors” (HUTCHISON MEDIPHARMA LIMITED, priority 2020, dated 2024).

Key:
BTK recombinant protein = BTK recombinant protein (Homo sapiens (Human), UniProt Q06187); test: Determination of biochemical BTK (Z'-LYTE kinase assay)
Description: Example 2 Determination of Biochemical BTK
1. Reagents and Materials
• BTK recombinant protein: Invitrogen, Cat #PV3363; • Z′-LYTE® kinase test kit-tyrosine 1 peptide: Invitrogen, Cat #PV3190; • 384-well low-flange black flat-bottomed polystyrene NBS microplate, no lid, no sterilization: Corning, Cat #3575; • 96-well polystyrene conical-bottomed MicroWell™ plate, sealed with a lid: Thermo Scientific™ Nunc™, Cat #277143; • Envision multi-mode plate reader: PerkinElmer; • Mixmate® shaker: Eppendorf; • TS-2102 shaking incubator: TENSUC; 2. Methods
Z′-LYTE® biochemical assay employs a fluorescence resonance energy transfer (FRET)-based, coupled-enzyme format and is based on the differential sensitivity of phosphorylated and non-phosphorylated peptides to proteolytic cleavage. Both ends of the short peptide substrate are labeled with two fluorescent groups to form a FRET paired combination. In the primary reaction (the Kinase Reaction), the kinase transfers the γ-phosphate of ATP to a single […] residue on the short peptide substrate. In the secondary reaction (the development reaction), the non-phosphorylated short peptides were recognized and cleaved by a site-specific protease (the development reagent). Phosphorylated short peptides can resist such cleavage. Cleavage of short peptides can disrupt the donor (such as coumarin) and receptor fluorophores (fluorescein) on the short peptides, while the phosphorylated short peptides can maintain FRET. The calculation method of the ratio is as follows, and the ratio of the respective emission signals generated by the donor fluorophores emitted (after excitation at 400 nm) to the receptors is calculated. Emission signal ratio=emitted light by coumarin (445 nm)/emitted light by fluorescein (520 nm). If the FRET short peptide is phosphorylated (such as no kinase inhibitor), the emitted light ratio will remain in a lower level. If the FRET short peptide is non-phosphorylated (such as kinase inhibitor), the emitted light ratio will be in a higher level. In this way, the inhibitory effects of different compound inhibitors on BTK kinase activity would be distinguished.
The experiment were carried out according to the instructions of the Z′-LYTE® kinase test kit-tyrosine 1 peptide. Reagent preparation: 1.33× kinase buffer: 5× kinase buffer was diluted with water to 1.33× kinase buffer; an enzyme solution: the kinase was dissolved in 1.33× kinase buffer with the final working concentration being 3.32 nM; a short peptide solution: a short peptide stock solution (1 mM dissolved in DMSO) was dissolved in 1.33× kinase buffer with the final working concentration being 2 μM; Z′-LYTE Tyr01 phosphorylated short peptide solution, 0.6 μl of stock solution (1 mM dissolved in DMSO) was dissolved in 149.4 μl of 1.33× kinase buffer; an ATP solution: an ATP stock solution (10 mM aqueous solution) was dissolved in 1.33× kinase buffer with the final working concentration being 32 μM; a color-developing solution: color-developing solution B was dissolved in color-developing buffer with the final working concentration being 1× color-developing solution; 4× compound preparation: the compound was diluted in 3-fold gradient concentration to finally obtain 4% DMSO aqueous solution containing different concentrations of the compound, with the final working concentration being 3000, 1000, 333.33, 111.11, 37.04, 12.35, 4.12, 1.37 nM, 8 concentration points in total.
Specific steps of the experiment: In the experiment, there were three control groups, each with 8 replicate wells, which were C1 100% inhibition group (no ATP), C2 0% inhibition group (with ATP), and C3 100% phosphorylation group, respectively. 2.5 μl of serially diluted compound was added to each well of a 384-well plate, with double replicate wells, and 4% DMSO solution was added to wells C1, C2, and C3. […]

[1] = Stability test in liver microsomes (rat); assay type: in vitro ADME; details: 1 μM compound; for stability in rat liver microsomes compared with reference GDC-0853: 0.5 mg/mL liver microsomes, 30 minutes incubation; for RLM, percentage of remaining compound after 30 minutes of incubation: rat liver microsomes
Description: (§1) Example 5 Stability Test in Liver Microsomes
(§2) Both male CD-1 mouse pooled liver microsomes and male SD rat pooled liver microsomes were purchased from BioreclamationIVT Corporation, USA.
(§3) Phenacetin, glucose-6-phosphate dehydrogenase (G-6-PDH) and nicotinamide adenine dinucleotide phosphate (NADP) were all purchased from Sigma-Aldrich Corporation, USA. Glucose-6-phosphate (G-6-P) was purchased from Shanghai Eybridge Chemical Technology Co., Ltd.
(§4) Ten mM test compound stock solution: a certain amount of test compound was weighed, and dissolved with an appropriate volume of DMSO to prepare a stock solution with a concentration of 10 mM for use.
(§5) Reaction stopping solution: an appropriate amount of internal standard compound phenacetin was dissolved in acetonitrile to prepare a reaction stopping solution with a concentration of 1000 ng/mL for use at room temperature.
(§6) The test compound stock solution was diluted with an organic solvent (usually a mixture of acetonitrile, methanol and water with various ratios, depending on the solubility of the compound, if necessary, 1 N hydrochloric acid or 1 N sodium hydroxide would be added to facilitate solubilization) to the 0.1 mM (the final concentration of the compound in the reaction system was 1 μM) and the concentration percentage of the organic solvents in the incubation system no more than 1% (wherein the percentage of DMSO was required to be no more than 0.1%). An appropriate amount of 100 mM NADP, 500 mM G-6-P and 100 Unit/mL G-6-PDH were mixed and diluted with ultrapure water (the final system contains 1 mM NADP, 5 mM G-6-P and 1 Unit/mL G-6-PDH), pre-incubated in a 37° C. water bath for 10 minutes and then placed on ice for use as a NADPH regeneration solution. 20 mg/mL liver microsomes solution and 200 mM phosphate buffer was mixed, and diluted with ultrapure water to give a liver microsomes solution containing 2.5 mg/mL liver microsomes (the final concentration of the reaction system is 0.5 mg/mL) and 50 mM phosphate buffer. The diluted liver microsomes solution was mixed with 0.1 mM compound solution, a mixture of 100 mM EDTA, 300 mM MgCl2 solution, 200 mM phosphate buffer (the final system was 3 mM MgCl2, 1 mM EDTA and 50 mM phosphate buffer) and water in an appropriate volume was added. Finally, the NADPH regeneration solution was added, then the reaction solution was placed in a 37° C. water bath to start the reaction (the reaction time was 30 minutes), and the reaction was stopped by adding the ice-cold acetonitrile reaction stopping solution containing the internal standard. The 0-minute sample was not incubated in a 37° C. water bath, and its difference from the 30-minute sample further lies in that the ice-cold acetonitrile reaction stopping solution containing the internal standard was added first, and then the NADPH regeneration solution was added. The sample added with the reaction stopping internal standard solution was vortexed and mixed well, and then centrifuged at 4400 rpm for 10 minutes. The supernatant was taken and diluted ten times with 50% methanol for LC-MS/MS analysis.
(§7) LC-MS/MS was used to determine the concentration of the compound in the sample. The percentage of the remaining compound after 30 minutes of incubation comparing with that in the 0-minute sample was calculated using the peak area ratio of the compound to the internal standard as an indicator, to evaluate the metabolic stability of the compound.
(§8) Instrument: API4500, API4000 or LTQ Mass Spectrometer; the liquid phase is UHPLC system (Shimadzu LC-30 AD, model Nexra X2) including liquid delivery unit, column thermostat, detector and autosampler; or Agilent 1200 Binary Pump series HPLC and CTC Autosampler.
(§9) Chromatographic column: Waters XSELECT Hss T3 C18 (2.5 μm, 2.1×50 mm) or […] (5 μm, 2.0×50 mm)
(§10) Mobile phase: • A: water with 0.1% FA (formic acid) (with or without 0.1% ACN (acetonitrile)) • B: acetonitrile with 0.1% FA (formic acid).

[2] = Stability test in liver microsomes (mouse); assay type: in vitro ADME; details: 1 μM compound; for stability in mouse liver microsomes compared with reference GDC-0853: 0.5 mg/mL liver microsomes, 30 minutes incubation; for MLM, percentage of remaining compound after 30 minutes of incubation: mouse liver microsomes
Description: as §1, §2, §3, §4, §5, §6, §7, §8, §9, §10

Chain of BTK recombinant protein (Q06187 whole entry): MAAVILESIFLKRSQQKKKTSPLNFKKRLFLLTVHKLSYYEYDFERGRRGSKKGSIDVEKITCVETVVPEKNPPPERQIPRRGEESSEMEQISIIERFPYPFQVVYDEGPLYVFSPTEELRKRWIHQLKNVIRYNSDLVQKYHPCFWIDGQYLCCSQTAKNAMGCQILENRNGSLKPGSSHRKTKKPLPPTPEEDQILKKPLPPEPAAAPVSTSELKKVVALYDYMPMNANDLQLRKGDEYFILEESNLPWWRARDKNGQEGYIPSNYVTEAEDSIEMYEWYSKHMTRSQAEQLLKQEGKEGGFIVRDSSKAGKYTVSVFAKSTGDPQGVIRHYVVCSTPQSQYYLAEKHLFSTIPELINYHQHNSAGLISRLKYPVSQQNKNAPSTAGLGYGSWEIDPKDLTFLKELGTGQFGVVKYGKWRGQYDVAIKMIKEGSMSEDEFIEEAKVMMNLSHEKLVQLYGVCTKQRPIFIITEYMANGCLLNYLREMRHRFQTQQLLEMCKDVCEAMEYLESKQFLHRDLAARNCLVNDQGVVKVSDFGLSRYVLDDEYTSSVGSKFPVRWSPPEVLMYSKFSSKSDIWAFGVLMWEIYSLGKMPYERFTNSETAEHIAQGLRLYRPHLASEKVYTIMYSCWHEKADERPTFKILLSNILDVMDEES

Row | Structure (SMILES) | IC50 (BTK recombinant protein) | stability in rat liver microsomes compared with reference GDC-0853 [1] | RLM, percentage of remaining compound after 30 minutes of incubation [1] | stability in mouse liver microsomes compared with reference GDC-0853 [2] | MLM, percentage of remaining compound after 30 minutes of incubation [2]
1 | C[C@H]1CN(C2COC2)CCN1c1ccc(Nc2nc(-c3ccnc(-n4ccn5c6c(cc5c4=O)CC(C)(C)C6)c3CO)cn(C)c2=O)nc1 [Compound 20] | 27 nM | – | – | – | –
2 | C[C@H]1CN(C2COC2)CCN1c1ccc(Nc2cc(-c3ccnc(-n4ccn5c6c(cc5c4=O)CC(C)(C)C6)c3CO)nn(C)c2=O)nc1 [Compound 22] | 10 nM | better than that of the reference GDC-0853 | 95.6% | better than that of the reference GDC-0853 | 83.4%
3 | CCn1cc(Nc2cc(-c3ccnc(-n4ccn5c6c(cc5c4=O)CC(C)(C)C6)c3CO)cn(C)c2=O)nn1 [Compound 24] | 3 nM | – | – | – | –
4 | CCn1cc(Nc2cc(-c3ccnc(-n4ccn5c6c(cc5c4=O)CC(C)(C)C6)c3CO)nn(C)c2=O)nn1 [Compound 25] | 8 nM | – | – | – | –
5 | Cn1cc(-c2ccnc(-n3ccn4c5c(cc4c3=O)CC(C)(C)C5)c2CO)cc(Nc2ccc(N3CCN(C4COC4)CC3=O)cn2)c1=O [Compound 34] | 5 nM | better than that of the reference GDC-0853 | ~100% | better than that of the reference GDC-0853 | 89.5%
6 | COCC(C)n1cc(Nc2nc(-c3ccnc(-n4ccn5c6c(cc5c4=O)CC(C)(C)C6)c3CO)cn(C)c2=O)nn1 (centres unmarked) [Compound 42] | 269 nM | – | – | – | –
7 | C[C@H]1CN(C2COC2)CCN1c1ccc(Nc2cc(-c3ccnc(-n4ccn5c(cc6ccccc65)c4=O)c3CO)cn(C)c2=O)nc1 [Compound 74] | – | better than that of the reference GDC-0853 | 87.7% | better than that of the reference GDC-0853 | 97.5%
8 | C[C@H]1CN(C2COC2)CCN1c1ccc(Nc2cc(-c3ccnc(-n4ccn5c(cc6cc(F)ccc65)c4=O)c3CO)cn(C)c2=O)nc1 [Compound 75] | – | better than that of the reference GDC-0853 | 84.0% | better than that of the reference GDC-0853 | 83.0%
9 | C[C@H]1CN(C2COC2)CCN1c1ccc(Nc2cc(-c3ccnc(-n4ncn5c6c(cc5c4=O)CC(C)(C)C6)c3CO)cn(C)c2=O)nc1 [Compound 79] | – | better than that of the reference GDC-0853 | ~100% | better than that of the reference GDC-0853 | ~100%
